The source of these data is patent publication US10357481B2 (MERCK SHARP & DOHME CORP., priority 2015, dated 2019).

Molecules are shown by their SMILES.

This assay has as its target T1, human PDE2A1 (Homo sapiens, UniProt O00408).
T1 construct: GST; purchased BPS Bioscience (San Diego, Calif.) 60020; host or cells: insect cells
The assay can be described thus: IMAP FP PDE selectivity panel, human PDE2A1. Conditions: Lab B; read-out: Human PDE2 Ki (nM) Lab B. The assay is classed as biochemical. In short, it runs like this: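 IMAP FP read-out, run at room temperature in parallel with PDE1–11: enzyme at 20% substrate conversion, 50 nM FAM-cAMP containing 1000 nM cGMP, Tris pH 7.2/MgCl2/DTT buffer. Compounds as ten 3-fold dilutions. Reaction 60 min, stopped with binding reagent for 1 h before polarization measurement.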

T1 sequence (O00408 1-920 isoform O00408-2): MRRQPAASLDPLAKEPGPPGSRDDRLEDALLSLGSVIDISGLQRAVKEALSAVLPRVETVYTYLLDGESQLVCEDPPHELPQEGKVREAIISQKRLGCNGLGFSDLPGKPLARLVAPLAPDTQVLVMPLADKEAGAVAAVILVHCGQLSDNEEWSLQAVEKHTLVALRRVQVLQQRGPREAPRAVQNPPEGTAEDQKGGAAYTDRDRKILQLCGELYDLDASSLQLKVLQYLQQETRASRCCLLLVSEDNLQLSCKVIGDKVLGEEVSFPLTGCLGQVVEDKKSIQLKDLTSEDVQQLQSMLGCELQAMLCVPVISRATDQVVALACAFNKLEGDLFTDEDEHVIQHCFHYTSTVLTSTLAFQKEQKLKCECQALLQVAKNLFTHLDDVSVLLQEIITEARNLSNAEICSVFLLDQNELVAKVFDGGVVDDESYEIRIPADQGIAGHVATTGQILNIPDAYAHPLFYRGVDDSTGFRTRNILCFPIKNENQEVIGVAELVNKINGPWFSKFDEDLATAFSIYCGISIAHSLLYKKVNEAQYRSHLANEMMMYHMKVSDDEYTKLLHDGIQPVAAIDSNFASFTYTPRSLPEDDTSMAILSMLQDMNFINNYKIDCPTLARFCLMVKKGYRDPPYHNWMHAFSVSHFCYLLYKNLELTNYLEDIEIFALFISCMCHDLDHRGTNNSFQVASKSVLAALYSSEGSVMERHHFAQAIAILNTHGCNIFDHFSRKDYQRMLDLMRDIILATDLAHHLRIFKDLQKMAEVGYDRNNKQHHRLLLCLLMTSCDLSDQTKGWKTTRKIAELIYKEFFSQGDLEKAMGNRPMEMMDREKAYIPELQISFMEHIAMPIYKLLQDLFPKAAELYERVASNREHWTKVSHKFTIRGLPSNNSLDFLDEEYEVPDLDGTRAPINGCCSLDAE

Consider `Cc1cc(NC2(c3cccc(C(F)(F)F)c3F)COC2)n2ncnc2n1` [Example 200, N-(3-(2-Fluoro-3-(trifluoromethyl)phenyl)oxetan-3-yl)-5-methyl-[1,2,4]triazolo [1,5-a]pyrimidin-7-amine], for which the Ki is more than 2960 nM.

On to `Cc1cc(NC(C)(C)c2ccc(OC(F)(F)F)cc2)n2ncnc2n1` [Example 49, 5-Methyl-N-{1-methyl-1-[4-(trifluoromethoxy)phenyl]ethyl} [1,2,4]triazolo[1,5-a]pyrimidin-7-amine], for which the Ki stood at 301 nM.

On to `Cc1cc(NC(c2ccc(-c3ccccc3)cc2)C(C)(C)O)n2ncnc2n1` (single isomer, unassigned) [Example 127, (1R or S)-1-Biphenyl-4-yl-2-methyl-1-[(5-methyl[1,2,4]triazolo[1,5-a]pyrimidin-7-yl)amino]propan-2-ol], for which the Ki was 21 nM.

For `CC(C)(O)C(Nc1cc(C(F)(F)F)nc2ncnn12)c1ccc(OC(F)(F)F)c(F)c1` (single isomer, unassigned) [Example 176, (1R or S)-1-[3-Fluoro-4-(trifluoromethoxy)phenyl]-2-methyl-1-{[5-(trifluoromethyl) [1,2,4]triazolo [1,5-a]pyrimidin-7-yl]amino} propan-2-ol], the Ki was approximately 1310 nM.

For the compound `COc1cc(NC2(c3ccc(C(F)(F)F)c(F)c3)CC2)n2ncnc2n1` [Example 235, N-(1-(3-Fluoro-4-(trifluoromethyl)phenyl)cyclopropyl)-5-methoxy-[1,2,4]triazolo [1,5-a]pyrimidin-7-amine], the inhibitory constant (Ki) was found to be 18 nM.

As for `Cc1cc(N[C@@H](c2ccc(C(F)(F)F)c(F)c2)C(C)(C)C)n2nc(C3CC3)nc2n1` [Example 205, (R)-2-Cyclopropyl-N-(1-(3-fluoro-4-(trifluoromethyl)phenyl)-2,2-dimethylpropyl)-5-methyl-[1,2,4]triazolo [1,5-a]pyrimidin-7-amine], the Ki turned out to be 24 nM.

With `CC(C)c1cc(NC(c2ccc(OC(F)(F)F)cc2F)C(C)(C)O)n2ncnc2n1` (single isomer, unassigned) [Example 137, (1R or S)-1-[2-Fluoro-4-(trifluoro-methoxy)phenyl]-2-methyl-1-{[5-(1-methylethyl) [1,2,4]triazolo [1,5-a]pyrimidin-7-yl]amino} propan-2-ol], the Ki was determined as 436 nM.

As to `Cc1nc2ncnn2c(N[C@@H](C)c2ccc(C(F)(F)F)cc2)c1C` [Example 86, 5,6-Dimethyl-N-{(1S)-1-[4-(trifluoromethyl)phenyl]ethyl}[1,2,4]triazolo[1,5-a]pyrimidin-7-amine], the Ki is approximately 1750 nM.

Consider `Cc1cc(N[C@H](c2ccc(OC(F)(F)F)cc2)C(C)(C)O)n2ncnc2n1` [Example 97, (1R)-2-Methyl-1-[(5-methyl [1,2,4]triazolo[1,5-a]pyrimidin-7-yl)amino]-1-[4-(trifluoromethoxy)phenyl]propan-2-ol], for which the Ki was more than 2960 nM.

Regarding `CC(C)(O)C(Nc1cc(C2CC2)nc2ncnn12)c1ccc(C(F)(F)F)cc1` (stereo in doubt) [Example 157, (1S)-1-[(5-Cyclopropyl[1,2,4]triazolo[1,5-a]pyrimidin-7-yl)amino]-2-methyl-1-[4-(trifluoromethyl)phenyl]propan-2-ol], the Ki came to 37 nM.

For the compound `CC(C)(C)[C@@H](Nc1cc(O)nc2ncnn12)c1ccc(C(F)(F)F)c(F)c1` [Example 238, (R)-7-(1-(3-Fluoro-4-(trifluoromethyl)phenyl)-2,2-dimethylpropylamino)-[1,2,4]triazolo[1,5-a]pyrimidin-5-ol], the Ki came to 335 nM.

For `Cc1cc(NC2(c3ccc(C(C)(C)C)cc3)CC2)n2ncnc2n1` [Example 61, N-{1-[4-(tert-Butyl)phenyl]cyclopropyl}5-methyl-[1,2,4]triazolo[1,5-a]pyrimidin-7-amine], the Ki came out at 81 nM.

As for `Cc1cc(NC(c2ccc(OC(F)(F)F)cc2C)C(C)(C)O)n2ncnc2n1` (single isomer, unassigned) [Example 128, (1S or R)-2-Methyl-1-[(5-methyl[1,2,4]triazolo[1,5-a]pyrimidin-7-yl)amino]-1-[2-methyl-4-(trifluoromethoxy)phenyl]propan-2-ol], the Ki is more than 2960 nM.

With `Cc1cc(NC(c2ccc3c(c2)OC(F)(F)O3)C(C)(C)O)n2ncnc2n1` (single isomer, unassigned) [Example 113, (1R or S)-1-(2,2-Difluoro-1,3-benzodioxol-5-yl)-2-methyl-1-[(5-methyl[1,2,4]triazolo[1,5-a]pyrimidin-7-yl)amino]propan-2-ol], the Ki turned out to be 93 nM.

As to `Cc1cc(NC(CO)c2ccc(C(F)(F)F)cc2)n2ncnc2n1` (stereo not drawn) [Example 88, 2-[(5-Methyl[1,2,4]triazolo[1,5-a]pyrimidin-7-yl)amino]-2-[4-(trifluoromethyl)phenyl]ethanol], the Ki turned out to be 736 nM.

Take `Cc1cc(NC(c2ccc3ccccc3c2)C(C)(C)O)n2ncnc2n1` (single isomer, unassigned) [Example 122, (1S or R)-2-Methyl-1-[(5-methyl [1,2,4]triazolo [1,5-a]pyrimidin-7-yl)amino]-1-naphthalen-2-yl propan-2-ol]: the Ki was more than 2960 nM.

Turning to `COCC(Nc1cc(C)nc2ncnn12)c1ccc(C(F)(F)F)c(F)c1` (single isomer, unassigned) [Example 209, (R)- or (S)-N-(1-(3-Fluoro-4-(trifluoromethyl)phenyl)-2-methoxyethyl)-5-methyl-[1,2,4]triazolo [1,5-a]pyrimidin-7-amine], the Ki is more than 2960 nM.

`Fc1cc(C2(Nc3cncc4ncnn34)CC2)ccc1C(F)(F)F` [Example 285, N-{1-[3-Fluoro-4-(trifluoromethyl)phenyl]cyclopropyl}[1,2,4]triazolo [1,5-a]pyrazin-5-amine]: the Ki was 22 nM.

With `Cc1cc(N[C@@H](c2ccc(C3(C)CC3)cc2)C(C)C)n2ncnc2n1` [Example 24, 5-Methyl-N-{(1R)-2-methyl-1-[4-(1-methyl-cyclopropyl)phenyl]propyl} [1,2,4]triazolo[1,5-a]pyrimidin-7-amine], the Ki stood at 26 nM.

As to `C[C@@H](Nc1cncc2ncnn12)c1ccc(C(F)(F)F)cc1` [Example 288], the Ki came out at 221 nM.

Take `CC(C)(C)c1ccc(C(Nc2cc(C(F)(F)F)nc3ncnn23)C(C)(C)O)cc1` (single isomer, unassigned) [Example 162, (1R or S)-1-(4-tert-Butylphenyl)-2-methyl-1-{[5-(trifluoromethyl) [1,2,4]triazolo [1,5-a]pyrimidin-7-yl]amino} propan-2-ol]: the Ki was approximately 2050 nM.

With `CC[C@@H](Nc1cc(C)nc2ncnn12)c1ccc(C(F)(F)F)c(F)c1` [Example 16, N-{(1R)-1-[3-Fluoro-4-(trifluoromethyl)phenyl]propyl}-5-methyl[1,2,4]triazolo[1,5-a] pyrimidin-7-amine], the Ki came to 61 nM.

As for `Cc1cc(N[C@@H](c2ccc(OC(F)(F)F)cc2F)C(C)(C)O)n2ncnc2n1` [Example 93, (1S)-1-[2-Fluoro-4-(trifluoromethoxy)phenyl]-2-methyl-[(5-methyl-[1,2,4]triazolo[1,5-a]pyrimidin-7-yl)amino]propan-2-ol], the Ki amounted to 742 nM.

With `C[C@@H](Nc1cc(CO)cc2ncnn12)c1ccc(C(F)(F)F)c(F)c1` [Example 272, [5-({(1R)-1-[3-Fluoro4-(trifluoromethyl)phenyl]ethyl}amino)[1,2,4]triazolo[1,5-a]pyridin-7-yl]methanol], the Ki came out at 121 nM.

The term Ki denotes the dissociation constant of the complex between target and ligand, obtained from inhibition or displacement.
